Assays:
[1] = test system: patients with type II diabetes; settings: oral 600 mg once to 3 times a day; cited from earlier work
[2] = test system: patients with type II diabetes; settings: single parenteral dose of 1,000 mg; cited from earlier work
diabetic neuropathy = settings: intravenous 600 mg a day for 3 weeks; cited from earlier work
male Wistar rats = assay: oxidative stress-induced (BSO) hypertension in rats; type: in vivo; settings: BSO 30 mmol/L/day in drinking water for seven days; compound 50 mg/kg/day for seven days
Excerpt: It is widely known that metabolic syndrome is generally accompanied by oxidative stress. Also in the paper of Ogihara (Ogihara T. et al. “Oxidative stress induces insulin resistance by activating the nuclear factor-kB pathway and disrupting normal subcellular distribution of phosphatidylinositol 3-kinase” in Diabetologia 47, 794-805 (2004) such relationship was found. The effect of oxidative stress-induced hypertension in rats has been evaluated in male Wistar rats (10 animals/group). Hypertension was induced by oral administration of buthionine sulphoximine (BSO) (30 mmol/L/day) to the drinking water for seven days.
Compounds of examples 2, 3 and 5 suspended in the vehicle at the dose of 50 mg/kg/day were administered for seven days and some parameters measured in the experiments are reported in table 2.

[3] = test system: high-fat diet fed insulin resistant mice; assay: hyperinsulinemic euglycemic clamp in high-fat diet fed insulin resistant mice; type: in vivo; settings: 50 mg/kg/day by gavage for 7 days; steady state phase of hyperinsulinemic euglycemic clamp; n = 8
Description: The effects of administration of 50 mg/kg/day of the compound of Example 2, by gavages to high-fat diet fed insulin resistant mice [Cook et al. Diabetes, 53:2067-72, 2004] for 7 days, in terms of glucose infusion rate (mg/kg per min, during the steady state phase of hyperinsulinemic euglycemic clamp studies) were reported in the following table 1: […]

SMILES | insulin sensitivity [1] | glucose utilization [2] | symptomatic complaints (diabetic neuropathy) | % Increase systolic blood pressure (male Wistar rats) [%] | % Plasma glutathione decrease (male Wistar rats) [%] | Endothelium function (% contraction induced by acetylcholine) (male Wistar rats) [%] | glucose infusion rate [3] [mg/kg per min]
O=C(O)CCCC[C@@H]1CCSS1 (racemic) [lipoic acid] | able to influence the insulin sensitivity | distinct improvement | decreased | – | – | – | –
CC(=O)Oc1ccccc1C(=O)Oc1ccc(-c2cc(=S)ss2)cc1 [Cpd Ex 5, 2-acetoxy-benzoic acid 4-(thioxo-5H-[1,2]dithiol-3-yl)-phenyl ester] | – | – | – | 10 | 5 | 88 | 86.4
CCOC(=O)c1ccccc1OC(=O)CCCCC1CCSS1 (stereo not shown) [Cpd Ex 6, 2-(5-[1,2]Dithiolan-3-yl-pentanoyloxy)-benzoic acid ethyl ester] | – | – | – | 50 | 20 | 60 | –
O=C(Oc1ccc(-c2cc(=S)ss2)cc1)c1ccccc1O [Cpd Ex 8, 2-hydroxybenzoic acid 4-(thioxo-5H-[1,2]dithiol-3-yl)-phenyl ester] | – | – | – | 15 | 7 | 80 | –

— patent publication US20090036516A1, “COMPOUNDS FOR TREATING METABOLIC SYNDROME” (CTG PHARMA S.R.L., priority 2003, published 2009)
